Measurements taken from PubChem BioAssay (NCI).
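Each compound was tested at five concentrations against cells in 96-well plates for 48 hours. TGI is the concentration that stops growth completely.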

Assays:
Experiment in all cases: NCI tumour cell line growth inhibition, 48 h
786-0 renal = tested on: 786-0 renal
A498 renal = tested on: A498 renal
A549 NSCLC = tested on: A549 NSCLC
ACHN renal = tested on: ACHN renal
CAKI-1 renal = tested on: CAKI-1 renal
CCRF-CEM leukemia = tested on: CCRF-CEM leukemia
COLO 205 colon = tested on: COLO 205 colon
DLD-1 colon = tested on: DLD-1 colon
DMS 114 small cell lung = tested on: DMS 114 small cell lung
EKVX NSCLC = tested on: EKVX NSCLC
HCC-2998 colon = tested on: HCC-2998 colon
HOP-62 NSCLC = tested on: HOP-62 NSCLC
HT29 colon = tested on: HT29 colon
IGROV1 ovarian = tested on: IGROV1 ovarian
K-562 leukemia = tested on: K-562 leukemia
KM12 colon = tested on: KM12 colon
KM20L2 colon = tested on: KM20L2 colon
LXFL 529 NSCLC = tested on: LXFL 529 NSCLC
M14 melanoma = tested on: M14 melanoma
M19-MEL melanoma = tested on: M19-MEL melanoma
MALME-3M melanoma = tested on: MALME-3M melanoma
MOLT-4 leukemia = tested on: MOLT-4 leukemia
NCI-H23 lung = tested on: NCI-H23 lung
NCI-H460 lung = tested on: NCI-H460 lung
NCI-H522 lung = tested on: NCI-H522 lung
OVCAR-3 ovarian = tested on: OVCAR-3 ovarian
OVCAR-4 ovarian = tested on: OVCAR-4 ovarian
OVCAR-5 ovarian = tested on: OVCAR-5 ovarian
OVCAR-8 ovarian = tested on: OVCAR-8 ovarian
RPMI-8226 leukemia = tested on: RPMI-8226 leukemia
SF-268 CNS = tested on: SF-268 CNS
SF-295 CNS = tested on: SF-295 CNS
SK-MEL-2 melanoma = tested on: SK-MEL-2 melanoma
SK-MEL-28 melanoma = tested on: SK-MEL-28 melanoma
SK-MEL-5 melanoma = tested on: SK-MEL-5 melanoma
SK-OV-3 ovarian = tested on: SK-OV-3 ovarian
SN12C renal = tested on: SN12C renal
SNB-19 CNS = tested on: SNB-19 CNS
SNB-75 CNS = tested on: SNB-75 CNS
SNB-78 CNS = tested on: SNB-78 CNS
SW-620 colon = tested on: SW-620 colon
TK-10 renal = tested on: TK-10 renal
U251 CNS = tested on: U251 CNS
UACC-257 melanoma = tested on: UACC-257 melanoma
UACC-62 melanoma = tested on: UACC-62 melanoma
UO-31 renal = tested on: UO-31 renal
XF 498 CNS = tested on: XF 498 CNS
BT-549 breast = tested on: BT-549 breast
DU-145 prostate = tested on: DU-145 prostate
HCT-116 colon = tested on: HCT-116 colon
HCT-15 colon = tested on: HCT-15 colon
HL-60(TB) leukemia = tested on: HL-60(TB) leukemia
HOP-92 NSCLC = tested on: HOP-92 NSCLC
HS 578T breast = tested on: HS 578T breast
LOX IMVI melanoma = tested on: LOX IMVI melanoma
MCF7 breast = tested on: MCF7 breast
MDA-MB-231 breast = tested on: MDA-MB-231 breast
MDA-MB-435 = tested on: MDA-MB-435
MDA-N = tested on: MDA-N
NCI-H226 lung = tested on: NCI-H226 lung
NCI/ADR-RES ovarian = tested on: NCI/ADR-RES ovarian
PC-3 prostate = tested on: PC-3 prostate
RXF 393 renal = tested on: RXF 393 renal
SF-539 CNS = tested on: SF-539 CNS
SR leukemia = tested on: SR leukemia
T-47D breast = tested on: T-47D breast

COc1ccc(OC)c(CCc2cc(OC)c(OC)cc2C)c1 gave a TGI (786-0 renal) greater than 100 µM, a TGI (A498 renal) greater than 100 µM and a TGI (A549 NSCLC) greater than 100 µM. For the same molecule, the TGI (ACHN renal) was greater than 100 µM, the TGI (CAKI-1 renal) was greater than 100 µM and the TGI (CCRF-CEM leukemia) was greater than 100 µM. It also gave a TGI (COLO 205 colon) greater than 100 µM, a TGI (DLD-1 colon) greater than 100 µM and a TGI (DMS 114 small cell lung) of 72.9 µM. It also gave a TGI (EKVX NSCLC) greater than 100 µM, a TGI (HCC-2998 colon) greater than 100 µM and a TGI (HOP-62 NSCLC) greater than 100 µM. For the same molecule, the TGI (HT29 colon) was greater than 100 µM, the TGI (IGROV1 ovarian) was greater than 100 µM and the TGI (K-562 leukemia) was greater than 100 µM. It also gave a TGI (KM12 colon) greater than 100 µM, a TGI (KM20L2 colon) greater than 100 µM and a TGI (LXFL 529 NSCLC) greater than 100 µM. For the same molecule, the TGI (M14 melanoma) was greater than 100 µM, the TGI (M19-MEL melanoma) was greater than 100 µM and the TGI (MALME-3M melanoma) was greater than 100 µM. It also gave a TGI (MOLT-4 leukemia) greater than 100 µM, a TGI (NCI-H23 lung) greater than 100 µM and a TGI (NCI-H460 lung) greater than 100 µM. The TGI (NCI-H522 lung) was 20.4 µM, the TGI (OVCAR-3 ovarian) was greater than 100 µM and the TGI (OVCAR-4 ovarian) was greater than 100 µM. For the same molecule, the TGI (OVCAR-5 ovarian) was greater than 100 µM, the TGI (OVCAR-8 ovarian) was greater than 100 µM and the TGI (RPMI-8226 leukemia) was 90.1 µM. The TGI (SF-268 CNS) was greater than 100 µM, the TGI (SF-295 CNS) was 47.2 µM and the TGI (SK-MEL-2 melanoma) was greater than 100 µM. It also gave a TGI (SK-MEL-28 melanoma) greater than 100 µM, a TGI (SK-MEL-5 melanoma) greater than 100 µM and a TGI (SK-OV-3 ovarian) of 98.4 µM. The TGI (SN12C renal) was greater than 100 µM, the TGI (SNB-19 CNS) was greater than 100 µM and the TGI (SNB-75 CNS) was greater than 100 µM. For the same molecule, the TGI (SNB-78 CNS) was 92.7 µM, the TGI (SW-620 colon) was greater than 100 µM and the TGI (TK-10 renal) was greater than 100 µM. The TGI (U251 CNS) was greater than 100 µM, the TGI (UACC-257 melanoma) was greater than 100 µM and the TGI (UACC-62 melanoma) was greater than 100 µM. It also gave a TGI (UO-31 renal) greater than 100 µM and a TGI (XF 498 CNS) greater than 100 µM.
Work on OC[C@H]1CC(c2nn[nH]n2)[C@H](O)[C@@H]1O (stereo partly specified) yielded a TGI (786-0 renal) greater than 100 µM, a TGI (A498 renal) greater than 100 µM and a TGI (A549 NSCLC) greater than 100 µM. It also gave a TGI (ACHN renal) greater than 100 µM, a TGI (BT-549 breast) greater than 100 µM and a TGI (CCRF-CEM leukemia) greater than 100 µM. It also gave a TGI (COLO 205 colon) greater than 100 µM, a TGI (DU-145 prostate) greater than 100 µM and a TGI (HCC-2998 colon) greater than 100 µM. For the same molecule, the TGI (HCT-116 colon) was greater than 100 µM, the TGI (HCT-15 colon) was greater than 100 µM and the TGI (HL-60(TB) leukemia) was greater than 100 µM. For the same molecule, the TGI (HOP-62 NSCLC) was greater than 100 µM, the TGI (HOP-92 NSCLC) was greater than 100 µM and the TGI (HS 578T breast) was greater than 100 µM. The TGI (HT29 colon) was greater than 100 µM, the TGI (IGROV1 ovarian) was greater than 100 µM and the TGI (K-562 leukemia) was greater than 100 µM. The TGI (KM12 colon) was greater than 100 µM, the TGI (LOX IMVI melanoma) was greater than 100 µM and the TGI (M14 melanoma) was greater than 100 µM. For the same molecule, the TGI (MALME-3M melanoma) was greater than 100 µM, the TGI (MCF7 breast) was greater than 100 µM and the TGI (MDA-MB-231 breast) was greater than 100 µM. For the same molecule, the TGI (MDA-MB-435) was greater than 100 µM, the TGI (MDA-N) was greater than 100 µM and the TGI (MOLT-4 leukemia) was greater than 100 µM. The TGI (NCI-H226 lung) was greater than 100 µM, the TGI (NCI-H23 lung) was greater than 100 µM and the TGI (NCI-H460 lung) was greater than 100 µM. For the same molecule, the TGI (NCI-H522 lung) was greater than 100 µM, the TGI (NCI/ADR-RES ovarian) was greater than 100 µM and the TGI (OVCAR-3 ovarian) was greater than 100 µM. The TGI (OVCAR-4 ovarian) was greater than 100 µM, the TGI (OVCAR-5 ovarian) was greater than 100 µM and the TGI (OVCAR-8 ovarian) was greater than 100 µM. For the same molecule, the TGI (PC-3 prostate) was greater than 100 µM, the TGI (RPMI-8226 leukemia) was greater than 100 µM and the TGI (RXF 393 renal) was greater than 100 µM. For the same molecule, the TGI (SF-268 CNS) was greater than 100 µM, the TGI (SF-295 CNS) was greater than 100 µM and the TGI (SF-539 CNS) was greater than 100 µM. It also gave a TGI (SK-MEL-28 melanoma) greater than 100 µM, a TGI (SK-MEL-5 melanoma) greater than 100 µM and a TGI (SK-OV-3 ovarian) greater than 100 µM. It also gave a TGI (SN12C renal) greater than 100 µM, a TGI (SNB-19 CNS) greater than 100 µM and a TGI (SNB-75 CNS) greater than 100 µM. For the same molecule, the TGI (SR leukemia) was greater than 100 µM, the TGI (SW-620 colon) was greater than 100 µM and the TGI (T-47D breast) was greater than 100 µM. For the same molecule, the TGI (TK-10 renal) was greater than 100 µM, the TGI (U251 CNS) was greater than 100 µM and the TGI (UO-31 renal) was greater than 100 µM.
